# How the values were obtained:
# [1] = test system: Mouse Delayed Contact Dermatitis Induced by Picryl Chloride; experiment: Mouse delayed contact dermatitis induced by picryl chloride; assay type: in vivo
# [2] = test system: Mouse Delayed Contact Dermatitis Induced by Picryl Chloride; experiment: as above; assay type: in vivo; remark: listed apart in the source
# Description: Pharmacological Test Example 3 Mouse Delayed Contact Dermatitis Induced by Picryl Chloride
# This pharmacological test was carried out referring to the method of Asherson, G. L. & Ptak, W. (Immunology, 15: 405–416 (1968).) and the method of Jun Hiroi (Folia Pharmacology of Japan, 86: 233–239 (1985).). More specifically, hairs on the abdomen of an ICR-strain male mouse were removed using an electric clipper and an electric shaver. Then, 0.1 mL of 7% ether solution of picryl chloride (Tokyo Kasei Kogyo Co., Ltd., C 0307) was applied onto the abdomen for sensitization. On the sixth day after the sensitization, 20 μL/ear of 1% olive oil solution of picryl chloride was topically applied to the anterior and posterior surfaces of both ears of the mouse to induce contact dermatitis (first induction). Before and 24 hours after the induction, the thicknesses of the particular parts on the both ears were measured three times, respectively, using a digimatic micrometer (Mitsutoyo Co., Ltd.) to work out the average values. Ear edema of the both ears was respectively determined by subtracting the average thickness of the each ear before the induction from that on 24 hours after the induction, so that a grouping was carried out to separate the appropriate individuals. On the fourth day after the first induction, the hairs on the abdomen were removed again, and 0.1 mL of 7% ethanol solution of picryl chloride was applied thereto for additional sensitization. The contact dermatitis for evaluating activity was induced by re-applying 20 μL/ear of 1% olive oil solution of picryl chloride to the anterior and posterior surfaces of both ears (second induction) on the seventh day after the additional sensitization (on the […] after the first sensitization). The activity of each compound of the present invention was evaluated as the inhibition on the contact dermatitis as compared with that of the vehicle applied control. That is, the thicknesses of the particular portions of the both ears were measured respectively three times with a digimatic micrometer to work out the mean values before, 24 hours and 48 hours after the second induction. Ear swelling was determined by subtracting the ear thickness before the second induction from that on 24 hours and 48 hours after the second induction, respectively. Topical application activity was evaluated by applying 25 μL of the acetone solution of the compound of the present invention similarly to the anterior and posterior surfaces of the right ear one hour before and 16 hours after the second induction. As the positive control, 0.02 mg/20 μL of acetone solution of Dexamethasone (hereinafter referred to as DEX, Wako Pure Chemical Industries Ltd., 047-18863) was applied similarly as for the compound of the present invention. With respect to the inhibitory activity in topical application tests, the topical activity was determined by the inhibition of the applied right ear edema, and the translocation and distribution property was determined by the activity onto the swelling of non-treated left ear. Oral administration activity was evaluated by administrating 0.5% methyl cellulose suspension of the compound of the present invention forcibly and perorally to the mouse an hour before and 16 hours after the second induction. As the positive control, 20 mg/kg of Prednisolone (Sigma Chemical Co., P 6004) suspension was administrated similarly as for the compounds of the present invention. […] As the examples, the body weight changes in the mice for 48 hours after the second induction when they were administrated with the compounds shown in Table 5 are shown in Table 6.
compound,measurement,setting,value
"C[C@@H]1C[C@H]2[C@@H]3CCC4=CC(=O)C=C[C@]4(C)[C@@]3(F)[C@@H](O)C[C@]2(C)[C@@]1(O)C(=O)CO [DEX, Dexamethasone]","Ear swelling after 24 hours, Right (Applied) (Mean ± S.E., mm)","[1]; topical 0.02 mg/25 μL/ear × 2, vehicle control 0.299 ± 0.006",0.057 ± 0.009 mm
same,"Ear swelling after 24 hours, Left (Not applied) (Mean ± S.E., mm)","[1]; topical 0.02 mg/25 μL/ear × 2 on right ear, vehicle control 0.284 ± 0.008",−0.005 ± 0.033 mm
same,Change in body weight 48 hours after induction (Mean ± S.E.),"[2]; 0.02 mg/ear × 2, vehicle control −0.45 ± 0.20",-1.42 ± 0.20 g
same,Change in body weight 48 hours after induction (Mean ± S.E.) (%),"[2]; 0.02 mg/ear × 2, vehicle control −1.29 ± 0.59",−4.30 ± 0.59%
same,intoxicated symptoms,[2]; mice of the picryl chloride dermatitis test,showed intoxicated symptoms
same,body weight 48 hours after the second induction,"[2]; mice of the picryl chloride dermatitis test, 48 hours after the second induction",reduced significantly
